In brackets after ≈: the same amount, converted by molar mass. Several values for one entry are separate records, joined by “and”; a condition that tells them apart may be missing. Identical values can stand only once. Like-named read-outs stand apart in the source and are kept apart here. Blank lines part the entries; values can stand above or below the compound they belong to.
What was measured:
physchem [1] = test: physchem
[2] = 18 h
physchem [3] = test: physchem; remark: listed apart in the source
[4] = dogs, gel caps, 200 mg/kg; cited from earlier work
[5] = PAMPA
[6] = flux function combining permeability and solubility measurement results; conditions: for net flux effect due to 1% HP-β-CD: pH 5.0, 6.2, 7.4, FIG. 13; for flux increase factor: 1% HP-β-CD vs excipient-free
[7] = mice; +HP-β-CD / no excip.
[8] = equilibrium solubility-pH, direct-UV microtitre plate (μSOL Evolution) with and without excipients; conditions: for solubility at 18 h / pKa at 18 h: aqueous universal buffer (pION); for solubility at 18 h: 25 °C, kinetic from dmso stock; for pKa at 18 h: saturated drug suspension, pKa^APP ± SD
[9] = mice, oral, cited from earlier work
[10] = Double-Sink PAMPA permeability with and without excipients
[11] = PAMPA, 30 min, 50 μM
[12] = cited from earlier work
[13] = buffer + 1% w/v HP-b-CD, * = anticipated salt limit exceeded
[14] = buffer, * = anticipated salt limit exceeded
[15] = apparent/true molecular weight, 40 μm ABL assumed, 0 mM NaTC (first value)
[16] = apparent ionization constant in saturated solution, excipient none
[17] = apparent ionization constant, excipient 3 mM NaTC
[18] = apparent ionization constant, excipient 15 mM NaTC
[19] = apparent ionization constant, excipient 0.1M KCl
[20] = apparent ionization constant, excipient 0.2M KCl
[21] = apparent ionization constant, excipient 1% HP-b-CD
[22] = apparent ionization constant, excipient 1% NMP
[23] = apparent ionization constant, excipient 1% PEG400
[24] = apparent ionization constant, excipient 1% PG
[25] = apparent ionization constant, excipient 5% PEG400
[26] = apparent ionization constant, excipient 5% PG
[27] = apparent ionization constant, excipient […] HP-b-CD
[28] = apparent ionization constant, excipient […] NMP
[29] = apparent ionization constant, excipient […] PEG400
[30] = apparent ionization constant, excipient […] PG

pKa at 18 h (physchem [1]; negative shift in the apparent pKa): 1.6 | pKa at 18 h (physchem [1]; pKa^APP ± SD): 4.6 ± 0.1 | n ± SD [2]: 1.1 ± 0.1 | pKa (physchem [3]): 5.75 ± 0.15 | average flux gain factor ([5]; pH 5): 3.1 | flux increase factor ([5]; pH 5): 20.1 | flux increase factor ([5]; pH 6.2): 4.3 | flux decrease factor ([5]; pH 7.4): 3
Compound: COc1ccc(Cl)cc1C(=O)NCCc1ccc(S(=O)(=O)NC(=O)NC2CCCCC2)cc1 [glybenclamide]
Cmax +HP-β-CD [4]: 610 ng/mL | Cmax no excip. [4]: 83.9 ng/mL | Tmax +HP-β-CD [4]: 2.5 h | Tmax no excip. [4]: 4.5 h

net flux effect due to 1% HP-β-CD [6]: cross-over pattern as a function of pH
Compound: CCCCc1oc2ccccc2c1C(=O)c1cc(I)c(OCCN(CC)CC)c(I)c1 [amiodarone]

Compound: CCCSc1ccc2nc(NC(=O)OC)[nH]c2c1 [albendazole]
AUC Ratio [7]: 1.4 | Cmax Ratio [7]: 4.3 | Tmax Ratio [7]: 0.4 | flux increase factor ([6]; pH 5.0): 3.0 | flux increase factor ([6]; pH 6.2): 3.1 | flux increase factor ([6]; pH 7.4): 3.1 | average flux gain factor ([6]; 1% HP-β-CD, average over pH 5.0, 6.2, 7.4): 3.1 | net flux effect due to 1% HP-β-CD [6]: gains, uniformly at the three pH values of interest | So^APP ([8]; buffer): 0.88 ± 0.07 µg/mL | S(pH 7.4) ([8]; buffer + 1% w/v HP-b-CD): 34 μg mL^−1 | So^APP ([8]; buffer + 1% w/v HP-b-CD): 34 ± 1 µg/mL | S(pH 5.0) [8, 13]: 34 μg mL^−1 | S(pH 6.2) [8, 13]: 34 μg mL^−1 | S(pH 5.0) [8, 14]: 1.0 μg mL^−1 | S(pH 6.2) [8, 14]: 0.89 μg mL^−1 | S(pH 7.4) [8, 14]: 0.88 μg mL^−1 | Cmax +HP-β-CD ([9]; HP-β-CD (20% w/v)): 390 ng/mL | Tmax +HP-β-CD ([9]; HP-β-CD (20% w/v)): 0.33 h | Cmax no excip. ([9]; suspension of excipient-free drug): 90 ng/mL | Tmax no excip. [9]: 0.75 h | Po ([10]; buffer): 4.28 ± 1.59 E−04 cm s^−1 | Po ([10]; buffer + 1% w/v HP-b-CD): 3.12 ± 0.30 E−05 cm s^−1

pKa at 18 h (physchem [1]; pKa^APP ± SD): 9.1 ± 0.5 | So ± SD [2]: 4.0 ± 2.9 µg/mL | PABL 0 mM NaTC [11]: 1080 | PABL 3 mM NaTC [11]: 561 | PABL 15 mM NaTC [11]: 9 | determined ABL thickness hABL [11]: < 50 μm | pKa (physchem [3]): 5.99 ± 0.06 | MW*/MW ([10]; 3 mM NaTC (second value)): 5 | MW*/MW ([10]; 15 mM NaTC (third value)): 56000 | MW*/MW [10, 15]: ~1
Compound: COc1ccc(CCN2CCC(Nc3nc4ccccc4n3Cc3ccc(F)cc3)CC2)cc1 [astemizole]

pKa at 18 h (physchem [1]; pKa^APP ± SD): 7.4 ± 1.1 | PABL 0 mM NaTC [11]: 2400 | PABL 3 mM NaTC [11]: 604 | determined ABL thickness hABL [11]: < 50 μm | pKa (physchem [3]): 6.02 ± 0.05 | MW*/MW ([10]; 3 mM NaTC (second value)): 5 | MW*/MW [10, 15]: < 1
Compound: Clc1ccccc1C(c1ccccc1)(c1ccccc1)n1ccnc1 [clotrimazole]

solubility at 18 h ([8]; aqueous buffer): 0.021 ± 0.005 µg/mL (≈ 0.087 µM) | solubility at 18 h ([8]; aqueous with cosolvent or surfactant or cyclodextrin): < 3 µg/mL | pKa at 18 h [8, 16]: 4.3 ± 0.3 | pKa at 18 h [8, 17]: 5.8 ± 0.1 | pKa at 18 h [8, 18]: 5.7 ± 0.1 | pKa at 18 h [8, 19]: 4.4 ± 0.4 | pKa at 18 h [8, 20]: 4.3 | pKa at 18 h [8, 21]: 5.2 ± 0.1 | pKa at 18 h [8, 22]: 4.4 ± 0.2 | pKa at 18 h [8, 23]: 4.5 | pKa at 18 h [8, 24]: 4 ± 0.3 | pKa at 18 h [8, 25]: 4.5 ± 1.1 | pKa at 18 h [8, 26]: 4 | pKa at 18 h [8, 27]: 4.6 ± 0.1 | pKa at 18 h [8, 28]: 4.1 ± 0.6 | pKa at 18 h [8, 29]: 4.5 ± 0.2 | pKa at 18 h [8, 30]: 4.1 ± 0.3 | So ± SD ([8]; excipient 3 mM NaTC): 0.11 ± 0.03 µg/mL | So^APP ± SD ([8]; excipient 3 mM NaTC): 1.9 ± 0.4 µg/mL | So ± SD ([8]; excipient 15 mM NaTC): 0.10 ± 0.03 µg/mL | So^APP ± SD ([8]; excipient 15 mM NaTC): 1.4 ± 0.3 µg/mL | So^APP ± SD ([8]; excipient 0.1M KCl): 0.023 ± 0.005 µg/mL | So^APP ± SD ([8]; excipient 0.2M KCl): 0.021 µg/mL | So ± SD ([8]; excipient 1% HP-b-CD): 0.61 µg/mL | So^APP ± SD ([8]; excipient 1% HP-b-CD): 2.9 ± 0.5 µg/mL | So^APP ± SD ([8]; excipient 1% NMP): 0.062 ± 0.010 µg/mL | So^APP ± SD ([8]; excipient 1% PEG400): 0.021 µg/mL | So^APP ± SD ([8]; excipient 1% PG): 0.021 µg/mL | So^APP ± SD ([8]; excipient 5% PEG400): 0.028 µg/mL | So^APP ± SD ([8]; excipient 5% PG): 0.056 µg/mL | So ± SD ([8]; excipient […] HP-b-CD): 0.28 ± 0.02 µg/mL | So^APP ± SD ([8]; excipient […] HP-b-CD): 0.34 ± 0.02 µg/mL | So^APP ± SD ([8]; excipient […] NMP): 0.019 ± 0.009 µg/mL | So^APP ± SD ([8]; excipient […] PEG400): 0.004 ± 0.002 µg/mL | So^APP ± SD ([8]; excipient […] PG): 0.021 µg/mL | intrinsic solubility in excipient free buffer ([8]; excipient free): 0.021 µg/mL | So^APP ± SD ([8]; excipient none): 0.021 ± 0.005 µg/mL | salt limit (sdiff 3-4 approximation) ([8]; three orders of magnitude above excipient-free intrinsic solubility): 21 µg/mL | PABL 0 mM NaTC [11]: 782 | PABL 3 mM NaTC [11]: 909 | PABL 15 mM NaTC [11]: 795 | refined ABL thickness [11]: exceeding 75 μm | pKa (physchem [3]): 4.39 ± 0.09 | MW*/MW ([10]; 3 mM NaTC (second value)): 3 | MW*/MW ([10]; 15 mM NaTC (third value)): 4 | MW*/MW [10, 15]: 4
Compound: Cc1cccc(Nc2ccccc2C(=O)O)c1C [mefenamic acid]
net flux effect due to 1% HP-β-CD ([5]; pH 5): In acid solutions, flux is helped by 1% HP-β-CD, but in neutral solutions, there is a net loss

pKa at 18 h [8, 16]: 5.8 ± 0.1 | pKa at 18 h [8, 17]: 5.6 ± 0.1 | pKa at 18 h [8, 18]: 5.2 ± 0.1 | pKa at 18 h [8, 19]: 6 ± 0.1 | pKa at 18 h [8, 20]: 5.9 ± 0.1 | pKa at 18 h [8, 21]: 5.6 ± 0.1 | pKa at 18 h [8, 22]: 5.7 ± 0.1 | pKa at 18 h [8, 23]: 5.9 ± 0.2 | pKa at 18 h [8, 24]: 5.8 ± 0.1 | pKa at 18 h [8, 25]: 6.2 ± 0.1 | pKa at 18 h [8, 26]: 5.8 ± 0.1 | pKa at 18 h [8, 27]: 5.8 ± 0.1 | pKa at 18 h [8, 28]: 5.8 ± 0.1 | pKa at 18 h [8, 29]: 6.8 ± 0.1 | pKa at 18 h [8, 30]: 5.8 ± 0.1 | So ± SD ([8]; excipient 3 mM NaTC): 5.3 ± 0.9 µg/mL | So^APP ± SD ([8]; excipient 3 mM NaTC): 24 ± 2 µg/mL | So ± SD ([8]; excipient 15 mM NaTC): 9.9 ± 1.7 µg/mL | So^APP ± SD ([8]; excipient 15 mM NaTC): 110 µg/mL and 110 ± 5 µg/mL | So ± SD ([8]; excipient 0.1M KCl): 3.3 ± 0.8 µg/mL | So^APP ± SD ([8]; excipient 0.1M KCl): 5.2 ± 0.8 µg/mL | So ± SD ([8]; excipient 0.2M KCl): 3.1 ± 0.7 µg/mL | So^APP ± SD ([8]; excipient 0.2M KCl): 5.8 ± 0.9 µg/mL | So ± SD ([8]; excipient 1% HP-b-CD): 3.2 ± 0.7 µg/mL | So^APP ± SD ([8]; excipient 1% HP-b-CD): 15 ± 1 µg/mL | So ± SD ([8]; excipient 1% NMP): 2.4 ± 0.7 µg/mL | So^APP ± SD ([8]; excipient 1% NMP): 8.1 ± 1.5 µg/mL | So ± SD ([8]; excipient 1% PEG400): 5.0 ± 1.9 µg/mL | So^APP ± SD ([8]; excipient 1% PEG400): 11 ± 3 µg/mL | So ± SD ([8]; excipient 1% PG): 2.7 ± 0.2 µg/mL | So^APP ± SD ([8]; excipient 1% PG): 6.5 ± 0.3 µg/mL | So ± SD ([8]; excipient 5% PEG400): 13.7 ± 2.4 µg/mL | So^APP ± SD ([8]; excipient 5% PEG400): 14 ± 1 µg/mL | So ± SD ([8]; excipient 5% PG): 3.9 ± 0.8 µg/mL | So^APP ± SD ([8]; excipient 5% PG): 9.8 ± 1.3 µg/mL | So ± SD ([8]; excipient […] HP-b-CD): 2.8 ± 0.7 µg/mL | So^APP ± SD ([8]; excipient […] HP-b-CD): 7.1 ± 0.8 µg/mL | So ± SD ([8]; excipient […] NMP): 2.2 ± 0.6 µg/mL | So^APP ± SD ([8]; excipient […] NMP): 5.9 ± 1.1 µg/mL | So^APP ± SD ([8]; excipient […] PEG400): 4.6 ± 1.2 µg/mL | So ± SD ([8]; excipient […] PG): 2.1 ± 0.3 µg/mL | So^APP ± SD ([8]; excipient […] PG): 5.8 ± 0.5 µg/mL | So ± SD ([8]; excipient none): 2.3 ± 0.7 µg/mL | So^APP ± SD ([8]; excipient none): 6.2 ± 1.1 µg/mL and 6.2 µg/mL | PABL 0 mM NaTC [11]: 941 | PABL 3 mM NaTC [11]: 922 | PABL 15 mM NaTC [11]: 47 | pKa (physchem [3]): 6.22 ± 0.15 | MW*/MW ([10]; 3 mM NaTC (second value)): 1 | MW*/MW ([10]; 15 mM NaTC (third value)): 1100 | MW*/MW [10, 15]: ~1
Compound: OCCN(CCO)c1nc(N2CCCCC2)c2nc(N(CCO)CCO)nc(N3CCCCC3)c2n1 [dipyridamole]
net flux effect due to 1% HP-β-CD ([5]; pH 5): the flux remains unaffected by the excipient

Compound: hydroxypropyl-β-cyclodextrin [HP-β-CD]
solubility [12]: 450000 µg/mL
